Measured values published in article PMC4138991, “Building a Better Dynasore: The Dyngo Compounds Potently Inhibit Dynamin and Endocytosis” (Traffic (Copenhagen, Denmark), 2013).

How the values were obtained:
synaptosomes = experiment: Glutamate release from synaptosomes (4-AP stimulated); assay type: cell-based, rat; settings: 20 μM, 30 min pretreatment, 3 mM 4-AP
Description: Release of glutamate from synaptosomes was performed as described previously 60, with minor changes. The assay was carried out at 37°C in a Perkin Elmer LS50 fluorimeter. Control (1% DMSO) and 4a‐treated samples were incubated in the presence of the compound for 30 min prior to stimulation of glutamate release. For each sample, 1 mg of crude P2 synaptosomes was diluted in 2 mL of HEPES‐buffered Krebs‐like buffer, either containing 1 mM EGTA (zero Ca^2+) or 1 mM EGTA plus 3 mM […] (2 mM free Ca^2+). NAPD^+ (3 mM) and glutamic acid dehydrogenase (50 U) were added and allowed to incubate for 15 min to allow residual glutamate in the sample to be metabolized. 4‐AP (3 mM) was subsequently added to stimulate glutamate release, which was recorded over a 5‐min period. Readings of fluorescence were taken every 2 seconds. All treatment conditions were carried out in zero Ca^2+ and 2 mM Ca^2+ conditions with the zero Ca^2+ measurement subtracted from the 2 mM measurement for each time point. […] Each treatment was carried out in duplicate within a single experiment and each independent experiment was carried out three times on separate days using synaptosomes prepared from fresh rat brain tissue ([…]).

[1] = target: T1, DynI (rec), full-length human dynamin I (Homo sapiens, UniProt Q05193); experiment: PS-stimulated GTPase assay with recombinant dynamin I from Sf21 cells; assay type: biochemical; settings: for IC50: DynI 20 nM, no unit in table; for DynI selectivity ratio: DynI (rec) versus DynII (rec)
T1 sequence (Q05193 1-864): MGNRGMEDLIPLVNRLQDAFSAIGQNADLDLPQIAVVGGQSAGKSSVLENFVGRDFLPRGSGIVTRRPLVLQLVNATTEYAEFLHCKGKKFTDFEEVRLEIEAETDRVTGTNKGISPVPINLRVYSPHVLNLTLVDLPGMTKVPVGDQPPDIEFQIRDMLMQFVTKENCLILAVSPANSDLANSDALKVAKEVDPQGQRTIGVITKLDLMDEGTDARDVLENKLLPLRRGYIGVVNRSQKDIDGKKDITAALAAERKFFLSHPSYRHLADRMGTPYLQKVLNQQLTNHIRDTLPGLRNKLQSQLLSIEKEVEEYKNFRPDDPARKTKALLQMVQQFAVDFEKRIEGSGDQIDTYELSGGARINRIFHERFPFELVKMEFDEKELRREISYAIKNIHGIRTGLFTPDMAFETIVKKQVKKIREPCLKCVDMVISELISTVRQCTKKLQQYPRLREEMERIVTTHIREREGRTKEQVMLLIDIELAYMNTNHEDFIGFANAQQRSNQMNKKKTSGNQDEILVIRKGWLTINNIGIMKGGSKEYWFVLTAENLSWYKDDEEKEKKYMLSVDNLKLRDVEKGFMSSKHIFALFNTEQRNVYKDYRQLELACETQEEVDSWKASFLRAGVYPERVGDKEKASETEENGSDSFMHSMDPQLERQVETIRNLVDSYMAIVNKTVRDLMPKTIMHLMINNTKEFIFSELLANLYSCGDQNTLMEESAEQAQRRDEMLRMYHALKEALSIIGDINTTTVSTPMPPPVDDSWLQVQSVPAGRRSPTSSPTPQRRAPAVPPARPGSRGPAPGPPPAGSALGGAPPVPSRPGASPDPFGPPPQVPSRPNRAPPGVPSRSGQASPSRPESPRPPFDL
Excerpt: Recombinant dynamin I was used only for the data in Table 2. The dynamin antibodies were from: Dynamin I—in‐house YF2 antibodies, raised in rabbits against two different synthetic peptides: dynamin I 629‐647 ([…]) and dynamin I 765–778 ([…]), used at 1/2000 dilution, as previously described 53; Dynamin II—Santa Cruz (C‐18, sc‐6400, used at 1/1000) and Dynamin III—Santa Cruz (P‐13, sc‐69472, used at 1/500 dilution).
The Malachite Green colorimetric GTPase assay was as described 10. Dynamin I activity was measured in its SAI activity state or was stimulated by three different methods. As each stimulus activates dynamin to different extents, each assay required different dynamin concentrations. First, maximal dynamin activity was stimulated by sonicated PS liposomes 10. Purified dynamin I (10–20 nM, diluted in: 6 mM Tris–HCl, 20 mM NaCl and 0.01% Tween 80, pH 7.4) was incubated in 96‐well plates in GTPase buffer (5 mM Tris–HCl, 10 mM NaCl, 2 mM Mg^2+, 0.05% Tween 80, pH 7.4, 1 µg/mL leupeptin and 0.1 mM PMSF) and GTP 0.3 mM in the presence of test compound for 30 min at 37°C in a final assay volume of 150 μL. Reactions were terminated with 10 μL of 0.5 M ethylenediaminetetraacetic acid (EDTA) pH 7.4 and Malachite Green solution (40 μL: 2% w/v ammonium molybdate tetrahydrate, 0.15% w/v malachite green and 4 M HCl) was added for 5 min. Second, dynamin (20 nM) was stimulated by 10 µg/mL of taxol‐stabilized preformed bovine brain microtubules (Cytoskeleton, Inc) using the same protocol. Third, dynamin I (50 nM) was stimulated by 1 μM of recombinant growth factor receptor‐bound protein 2 (grb2), a SH3 (Src homology)‐containing protein that stimulates dynamin about 5–10 times less efficiently than liposomes or microtubules 54. The assay conditions were as described above. Finally, dynamin (500 nM) SAI activity was measured using high concentrations of dynamin, which promote its cooperative self‐assembly into rings (but not helices) 26. The final DMSO concentration in the GTPase or endocytosis assays was at most 3.3 or 1%, respectively, but typically was at 1%. The GTPase assay for dynamin I was unaffected by DMSO up to 3.3%. Compounds were dissolved as 30 mM stocks in 100% DMSO. These stock solutions can be stored at −20°C for several months. Compounds were subsequently diluted into solutions of 50% DMSO made up in 20 mM Tris–HCl pH 7.4 and diluted again into the final assay. For analysis of the kinetics of 4a inhibition, dynamin I at a final concentration of 17 nM was incubated with GTPase buffer containing PS (2 µg/mL) and varying amounts of GTP (50–250 μM) in the presence of 4a at a concentration range between 0.5 and 6 μM. […] After the Vmax and Km values were determined, the data were transformed using the Lineweaver–Burke equation, 1/v = 1/Vmax + (Km/Vmax)(1/[S]).

Calyx of Held = system: Calyx of Held; parameters: method as in PMID 18066059; settings: 100 μM, 5-min preincubation; cited from earlier work

| SMILES | Ca2+-dependent glutamate release (synaptosomes) | IC50 ([1]; Absence of Tween) [µM] | DynI selectivity ratio ([1]; Absence of Tween) | IC50 ([1]; Presence of Tween) [µM] | DynI selectivity ratio ([1]; Presence of Tween) | SVE at the Calyx of Held (Calyx of Held) |
| --- | --- | --- | --- | --- | --- | --- |
| O=C(N/N=C/c1cc(O)c(O)cc1O)c1cc2ccccc2cc1O [4a, (E)-3-Hydroxy-N'-(2,4,5-trihydroxybenzylidene) -2-naphthohydrazide] | decrease in the release of glutamate only after 45 seconds | 1.1 ± 0.2 | 2.1 | 30 ± 8.2 | 3.1 |  |
| O=C(N/N=C/c1ccc(O)c(O)c1)c1cc2ccccc2cc1O [Dynasore, (E)-N'-(3,4-Dihydroxybenzylidene)-3-hydroxy-2-naphthohydrazide] |  |  |  |  |  | inhibit SVE |
